# Results as given in patent US20060013897A1, “Compositions for cancer therapy saponins or sapogenins” (priority 2002, published 2006).
# Key:
# Format in all cases: cell-based
# [1] = test system: human glioma tumor cells (U87); assay: MTT cytotoxicity assay, U87 cells; settings: 15 μg/mL (individual components at similar concentrations), MTT at 24 hours
# Source text: (§1) Preparation of Compositions: A process of preparing a composition comprising of Rh2, aPPD, and aPPT saponins and/or sapogenins from plants selected from the group consisting of panax ginseng, panax quinguefol and panax notoginseng, or a sapogenin source from some other plant, and proceeding according to the following steps: • (a) mixing the ginsenoside extract with water; • (b) (i) mixing the ginsenoside extract and water with a short-chain (1-5 carbon) alkali-metal alcoholate solution or a hydroxide-ethanol solution to produce a mixture; and • (ii) placing the resultant mixture in a reaction tank so that the resultant mixture can undergo chemical reactions at a temperature between 240 and 300° C. and at a pressure between 3.5 and 8.4 MPa; or • (c) (i) alternatively, mixing the ginsenosides extract with ethanol; • (ii) mixing the extract and ethanol with alkali-metal alcoholates solution to produce a mixture, and • (iii) placing the resultant mixture in a reaction tank so that the resultant mixture can undergo chemical reactions at a temperature between 240 and 300° C. and at a pressure between 3.5 and 8.4 MPa; and • (d) after the reaction is completed, collecting an intermediate product of a mix of saponins and/or sapogenins from the ethanol mixture. Cytotoxicity was measured using a standard microculture tetrazolium assay (MTT) (Alley, M C et al, Cancer Research 48:589-601, 1988). Exponentially growing cultures of tumor cells, including multi-drug resistant cell lines, were used to make microtiter plate cultures. Cells were seeded at 1.2×10^3 cells per well in 96-well plates, and grown overnight at 37° C. Test compounds were then added. Cells were treated for 24 hours. To determine the number of viable cells in each well, the MTT dye was added (3-(4,5-dimethylthiazol-2-yl)-2,5-diphenyltetrazolium bromide in saline) in accordance with the standard practice known in the art.
# Cultured human glioma tumor cells (U87) were treated with the saponins and sapogenins Rh2, aPPT, and aPPD, individually, at various concentrations. […]
# [2] = test system: mouse melanoma cells (B16); assay: MTT cytotoxicity assay, B16 cells; settings: 10 μg/mL (individual components at similar concentrations), MTT at 24 hours
# Source text: as §1
# Cultured mouse melanoma cells (B16) were treated with the saponins and sapogenins Rh2, aPPT, and aPPD, individually, at various concentrations. […]
# [3] = test system: human breast cancer cells (MCF7); assay: MTT cytotoxicity assay, MCF7 cells; settings: 15 μg/mL (individual components at similar concentrations), MTT at 24 hours
# Source text: as §1
# Cultured human breast cancer cells (MCF7) were treated with the saponins and sapogenins Rh2, aPPT, and aPPD, individually, at various concentrations. […]
SMILES,cancer cells killed [1] [%],cancer cells killed [2] [%],cancer cells killed [3] [%]
"CC(C)=CCC[C@](C)(O)[C@H]1CC[C@]2(C)[C@@H]1[C@H](O)C[C@@H]1[C@@]3(C)CC[C@H](O[C@@H]4O[C@H](CO)[C@@H](O)[C@H](O)[C@H]4O)C(C)(C)[C@@H]3CC[C@]12C [Rh2, 3-O-β-D-glucopyranosyl-20(s)-protopanaxadiol]",64,56,68
"CC(C)=CCC[C@@](C)(O)[C@H]1CC[C@]2(C)[C@@H]1[C@H](O)C[C@@H]1[C@@]3(C)CC[C@H](O)C(C)(C)[C@@H]3CC[C@]12C [aPPD, aglycon protopanaxadiol]",52,44,69
"CC(C)=CCC[C@](C)(O)[C@H]1CC[C@]2(C)[C@@H]1[C@H](O)C[C@@H]1[C@@]3(C)CC[C@H](O)C(C)(C)[C@@H]3[C@@H](O)C[C@]12C [aPPT, aglycon protopanaxatriol]",29,47,68
